In ChEMBL document CHEMBL3526086, “Identification of the oxidative and conjugative enzymes involved in the biotransformation of brivanib” (Drug Metab Dispos, 2012):

Assays:
[1] = test system: Liver cytosol; assay: Drug metabolism in human liver cytosol assessed as (R)-1-(4-(4-fluoro-2-methyl-1H-indol-5-yloxy)-5-methylpyrrolo[1,2-f][1,2,4]triazin-6-yloxy)propane-2-sulfonic acid formation at 2 uM for 2 hrs by LC/MS analysis in presence of PAPS; format: ADME
[2] = test system: Liver microsome; assay: Drug metabolism in human liver microsomes assessed as 1-(4-(4-fluoro-2-methyl-1H-indol-5-yloxy)-5-methylpyrrolo[1,2-f][1,2,4]triazin-6-yloxy)propan-2-one formation at 2 uM for 60 mins by LC/MS analysis; format: ADME
[3] = test system: Liver microsome; assay: Drug metabolism in human liver microsomes assessed as (R)-4-fluoro-5-(6-(2-hydroxypropoxy)-5-methylpyrrolo[1,2-f][1,2,4]triazin-4-yloxy)-1H-indole-2-carboxylic acid formation at 2 uM for 60 mins by LC/MS analysis in presence of NADPH; format: ADME
[4] = test system: Liver microsome; assay: Drug metabolism in human liver microsomes assessed as (R)-1-(4-(4-fluoro-2-(hydroxymethyl)-1H-indol-5-yloxy)-5-methylpyrrolo[1,2-f][1,2,4]triazin-6-yloxy)propan-2-ol formation at 2 uM for 60 mins by LC/MS analysis in presence of NADPH; format: ADME
[5] = test system: Liver microsome; assay: Drug metabolism in human liver microsomes assessed as 1-(4-(4-fluoro-2-methyl-1H-indol-5-yloxy)-5-methylpyrrolo[1,2-f][1,2,4]triazin-6-yloxy)propan-2-one formation at 2 uM for 60 mins by LC/MS analysis in presence of NADPH; format: ADME
[6] = test system: Liver microsome; assay: Drug metabolism in human liver microsomes assessed as brivanib formation at 2 uM for 60 mins by LC/MS analysis in presence of NADPH; format: ADME; details: 1 h
[7] = test system: Liver microsome; assay: Drug metabolism in human liver microsomes assessed as (R)-4-fluoro-5-(6-(2-hydroxypropoxy)-5-methylpyrrolo[1,2-f][1,2,4]triazin-4-yloxy)-1H-indole-2-carboxylic acid formation at 2 uM for 60 mins by LC/MS analysis; format: ADME
[8] = test system: Liver microsome; assay: Drug metabolism in human liver microsomes assessed as brivanib formation at 2 uM for 60 mins by LC/MS analysis; format: ADME; details: 1 h
[9] = test system: Liver microsome; assay: Drug metabolism in human liver microsomes assessed as (R)-1-(4-(4-fluoro-2-(hydroxymethyl)-1H-indol-5-yloxy)-5-methylpyrrolo[1,2-f][1,2,4]triazin-6-yloxy)propan-2-ol formation at 2 uM for 60 mins by LC/MS analysis; format: ADME
[10] = biological target: Sulfotransferase 1E1 (Homo sapiens, UniProt P49888); assay: Activity of human SULT1E1 assessed as compound formation treated with 2 and 20 uM brivanib for 30 mins by LC/MS analysis in presence of PAPS; format: ADME; details: 0.5 h
[11] = biological target: Sulfotransferase 1B1 (Homo sapiens, UniProt O43704); assay: Activity of human SULT1B1 assessed as compound formation treated with 2 and 20 uM brivanib for 30 mins by LC/MS analysis in presence of PAPS; format: ADME; details: 0.5 h
[12] = test system: Liver cytosol; assay: Drug level in human liver cytosol treated with 2 uM [14C]brivanib alaninate for 2 hrs by LC/MS analysis in presence of PAPS; format: ADME, tissue-based
[13] = biological target: Sulfotransferase 1A1 (Homo sapiens, UniProt P50225); assay: Activity of human SULT1A1 assessed as compound formation treated with 2 and 20 uM brivanib for 30 mins by LC/MS analysis in presence of PAPS; format: ADME; details: 0.5 h
[14] = biological target: Sulfotransferase 1A3 (Homo sapiens, UniProt P0DMM9); assay: Activity of human SULT1A3 assessed as compound formation treated with 2 and 20 uM brivanib for 30 mins by LC/MS analysis in presence of PAPS; format: ADME; details: 0.5 h
[15] = biological target: Sulfotransferase 2A1 (Homo sapiens, UniProt Q06520); assay: Activity of human SULT2A1 assessed as compound formation treated with 2 and 20 uM brivanib for 30 mins by LC/MS analysis in presence of PAPS; format: ADME; details: 0.5 h
[16] = test system: Liver cytosol; assay: Drug metabolism in human liver cytosol assessed as sulfate conjugate formation at 2 uM for 60 mins in absence of PAPS by LC/MS analysis; format: ADME, tissue-based; details: 1 h
[17] = test system: Liver cytosol; assay: Drug metabolism in human liver cytosol assessed as (R)-1-(4-(4-fluoro-2-(hydroxymethyl)-1H-indol-5-yloxy)-5-methylpyrrolo[1,2-f][1,2,4]triazin-6-yloxy)propane-2-sulfonic acid formation at 2 uM for 60 mins by LC/MS analysis in presence of PAPS; format: ADME
[18] = test system: Liver cytosol; assay: Drug metabolism in human liver cytosol assessed as (R)-4-fluoro-5-(5-methyl-6-(2-sulfopropoxy)pyrrolo[1,2-f][1,2,4]triazin-4-yloxy)-1H-indole-2-carboxylic acid formation at 2 uM for 60 mins by LC/MS analysis in presence of PAPS; format: ADME
[19] = test system: Liver cytosol; assay: Drug metabolism in human liver cytosol assessed as (R)-4-fluoro-5-(6-(2-hydroxypropoxy)-5-methylpyrrolo[1,2-f][1,2,4]triazin-4-yloxy)-1H-indole-2-carboxylic acid formation at 2 uM for 60 mins by LC/MS analysis in presence of NADPH; format: ADME
[20] = test system: Liver cytosol; assay: Drug metabolism in human liver cytosol assessed as (R)-4-fluoro-5-(6-(2-hydroxypropoxy)-5-methylpyrrolo[1,2-f][1,2,4]triazin-4-yloxy)-1H-indole-2-carboxylic acid formation at 2 uM for 60 mins by LC/MS analysis; format: ADME, tissue-based

Sequence of Sulfotransferase 1A1 (P50225 whole entry): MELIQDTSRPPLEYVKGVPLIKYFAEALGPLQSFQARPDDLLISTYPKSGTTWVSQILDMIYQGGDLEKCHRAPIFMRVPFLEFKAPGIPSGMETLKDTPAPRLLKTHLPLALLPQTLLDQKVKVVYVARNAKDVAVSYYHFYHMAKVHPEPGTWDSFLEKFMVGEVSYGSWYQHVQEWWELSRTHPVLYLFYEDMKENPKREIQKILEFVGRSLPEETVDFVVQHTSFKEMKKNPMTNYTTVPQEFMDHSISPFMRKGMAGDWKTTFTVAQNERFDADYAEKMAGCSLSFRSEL
Sequence of Sulfotransferase 1A3 (P0DMM9 whole entry): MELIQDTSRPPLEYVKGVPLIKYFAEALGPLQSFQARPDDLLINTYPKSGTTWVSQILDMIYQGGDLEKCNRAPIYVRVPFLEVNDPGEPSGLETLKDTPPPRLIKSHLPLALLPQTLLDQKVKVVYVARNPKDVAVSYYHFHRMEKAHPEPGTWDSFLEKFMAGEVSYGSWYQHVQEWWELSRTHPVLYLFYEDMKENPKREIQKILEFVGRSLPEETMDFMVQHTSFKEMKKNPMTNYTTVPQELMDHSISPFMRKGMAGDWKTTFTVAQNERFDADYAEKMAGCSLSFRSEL
Sequence of Sulfotransferase 1E1 (P49888 whole entry): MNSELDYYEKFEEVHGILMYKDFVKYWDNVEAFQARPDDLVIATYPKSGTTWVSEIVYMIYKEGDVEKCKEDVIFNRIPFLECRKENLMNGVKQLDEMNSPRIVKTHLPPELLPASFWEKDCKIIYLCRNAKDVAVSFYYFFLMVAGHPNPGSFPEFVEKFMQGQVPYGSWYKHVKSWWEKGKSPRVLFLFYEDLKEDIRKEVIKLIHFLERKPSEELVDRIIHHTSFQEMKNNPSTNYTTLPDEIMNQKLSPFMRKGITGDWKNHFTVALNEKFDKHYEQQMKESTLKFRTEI
Sequence of Sulfotransferase 1B1 (O43704 whole entry): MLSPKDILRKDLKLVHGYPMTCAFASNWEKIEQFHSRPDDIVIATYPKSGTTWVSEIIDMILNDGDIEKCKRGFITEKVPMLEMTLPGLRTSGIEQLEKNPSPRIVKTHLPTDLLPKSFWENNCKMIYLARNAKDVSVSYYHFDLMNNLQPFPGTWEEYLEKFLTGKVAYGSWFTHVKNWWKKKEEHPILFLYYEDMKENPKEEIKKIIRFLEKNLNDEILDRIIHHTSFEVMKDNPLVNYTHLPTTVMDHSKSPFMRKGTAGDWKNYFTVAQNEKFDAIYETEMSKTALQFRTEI
Sequence of Sulfotransferase 2A1 (Q06520 whole entry): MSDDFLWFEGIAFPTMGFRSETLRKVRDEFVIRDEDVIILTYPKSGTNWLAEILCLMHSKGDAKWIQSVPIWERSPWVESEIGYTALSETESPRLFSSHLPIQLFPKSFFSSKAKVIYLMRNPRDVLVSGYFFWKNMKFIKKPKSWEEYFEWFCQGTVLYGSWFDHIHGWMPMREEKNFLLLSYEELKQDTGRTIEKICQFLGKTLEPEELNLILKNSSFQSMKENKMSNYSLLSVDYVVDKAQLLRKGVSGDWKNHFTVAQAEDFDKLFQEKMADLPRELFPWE

Row | SMILES | Drug metabolism [1] | Drug metabolism [2] | Drug metabolism [3] | Drug metabolism [4] | Drug metabolism [5] | Drug metabolism [6] | Drug metabolism [7] | Drug metabolism [8] | Drug metabolism [9] | Drug metabolism [10] | Drug metabolism [11] | Drug metabolism [12] | Drug metabolism [13] | Drug metabolism [14] | Drug metabolism [15] | Drug metabolism [16] | Drug metabolism [17] | Drug metabolism [18] | Drug metabolism [19] | Drug metabolism [20]
1 | Cc1cc2c(F)c(Oc3n[14cH]nn4cc(OC[C@@H](C)OC(=O)[C@H](C)N)c(C)c34)ccc2[nH]1 | metabolite_detected | metabolite_not_detected | metabolite_detected | metabolite_detected | metabolite_detected | metabolite_detected | metabolite_not_detected | metabolite_detected | metabolite_not_detected |  |  |  |  |  |  |  |  |  |  | 
2 | Cc1cc2c(F)c(Oc3ncnn4cc(OC[C@@H](C)OS(=O)(=O)O)c(C)c34)ccc2[nH]1 |  |  |  |  |  |  |  |  |  | metabolite_detected | metabolite_detected | metabolite_detected | metabolite_detected | metabolite_detected | metabolite_detected |  |  |  |  | 
3 | Cc1c(OC[C@@H](C)O)cn2n[14cH]nc(Oc3ccc4[nH]c(CO)cc4c3F)c12 |  |  | metabolite_detected |  |  |  | metabolite_not_detected |  |  |  |  |  |  |  |  | metabolite_not_detected | metabolite_detected | metabolite_detected | metabolite_detected | metabolite_detected
